Test results from patent publication US20200016159A1, “N3-CYCLICALLY SUBSTITUTED THIENOURACILS AND USE THEREOF” (Bayer Aktiengesellschaft, priority 2016, published 2020).

Target: T1, human adenosine A2b receptor (Homo sapiens, UniProt P29275)
T1 sequence (P29275 1-332): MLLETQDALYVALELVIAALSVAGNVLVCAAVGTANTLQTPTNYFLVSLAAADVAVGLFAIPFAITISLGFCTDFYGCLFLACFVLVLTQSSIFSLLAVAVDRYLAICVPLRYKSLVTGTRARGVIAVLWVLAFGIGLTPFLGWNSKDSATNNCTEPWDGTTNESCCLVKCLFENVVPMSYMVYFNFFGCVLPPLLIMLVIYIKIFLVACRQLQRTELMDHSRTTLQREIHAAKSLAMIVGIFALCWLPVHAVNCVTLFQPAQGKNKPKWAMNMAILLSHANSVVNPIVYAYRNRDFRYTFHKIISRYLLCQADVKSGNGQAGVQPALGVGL
Test: Cellular in vitro reporter gene test for A2b receptor activity (antagonism of NECA)
Type: cell-based
Parameters: expressed in transfected cells; host or cells: CHO-K1 (Chinese hamster ovary) with CRE-luciferase reporter
Settings: recombinant CHO-K1 cells, CRE-luciferase reporter, co-incubation with EC50 concentration of NECA, 3 hours
Procedure, shortened: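 Antagonism measured as block of NECA-induced, cAMP/CRE-dependent luciferase expression in recombinant A2b CHO-K1 cells. NECA used at the EC50 set in a pre-experiment on each test day; luminescence detected after 3 h. Reported as IC50, partly averaged and rounded to two significant figures.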

SMILES	IC50
COCCn1c(=O)n(C2CC(F)(F)C2)c(=O)c2c(C)c(CN3CCNC3=O)sc21 [Example 125, 3-(3,3-Difluorocyclobutyl)-1-(2-methoxyethyl)-5-methyl-6-[(2-oxoimidazolidin-1-yl)methyl]thieno[2,3-d]pyrimidine-2,4(1H,3H)-dione]	33 nM
CCn1c(=O)n([C@H]2C[C@@H]2C)c(=O)c2c(C)c(Cn3nc[nH]c3=O)sc21 [Example 316, 1-Ethyl-5-methyl-3-[(1S,2S)-2-methylcyclopropyl]-6-[(5-oxo-4,5-dihydro-1H-1,2,4-triazol-1-yl)methyl]thieno[2,3-d]pyrimidine-2,4(1H,3H)-dione]	25 nM
Cc1c(CN2CCNC2=O)sc2c1c(=O)n(C1(C)CC1)c(=O)n2CC1CC1(F)F (racemic) [Example 63, 1-[(2,2-Difluorocyclopropyl)methyl]-5-methyl-3-(1-methylcyclopropyl)-6-[(2-oxoimidazolidin-1-yl)methyl]thieno[2,3-d]pyrimidine-2,4(1H,3H)-dione]	12 nM
Cc1c(CN2CCNC2=NC#N)sc2c1c(=O)n(C1CCCC1)c(=O)n2CCC(F)(F)F [Example 185, [1-{[3-Cyclopentyl-5-methyl-2,4-dioxo-1-(3,3,3-trifluoropropyl)-1,2,3,4-tetrahydrothieno[2,3-d]pyrimidin-6-yl]methyl}imidazolidin-2-ylidene]cyanamide]	16 nM
COCCn1c(=O)n(C2CC2C(F)(F)F)c(=O)c2c(C)c(CN3CCNC3=O)sc21 (single isomer, unassigned) [Example 295, 1-(2-Methoxyethyl)-5-methyl-6-[(2-oxoimidazolidin-1-yl)methyl]-3-[2-(trifluoromethyl)cyclopropyl]thieno[2,3-d]pyrimidine-2,4(1H,3H)-dione]	120 nM
Cc1c(CN2CCNC2=O)sc2c1c(=O)n(C1(C)CC1)c(=O)n2CC1CCC1 [Example 61, 1-(Cyclobutylmethyl)-5-methyl-3-(1-methylcyclopropyl)-6-[(2-oxoimidazolidin-1-yl)methyl]thieno[2,3-d]pyrimidine-2,4(1H,3H)-dione]	5.4 nM
COCCn1c(=O)n([C@H]2C[C@@H](OC)C2)c(=O)c2c(C)c(Cn3nc[nH]c3=O)sc21 [Example 163, 3-(cis-3-Methoxycyclobutyl)-1-(2-methoxyethyl)-5-methyl-6-[(5-oxo-4,5-dihydro-1H-1,2,4-triazol-1-yl)methyl]thieno[2,3-d]pyrimidine-2,4(1H,3H)-dione]	1200 nM
Cc1c(CN2CCNC2=O)sc2c1c(=O)n(C1CC1(C)C)c(=O)n2CCCF (single isomer, unassigned) [Example 99, 3-(2,2-Dimethylcyclopropyl)-1-(3-fluoropropyl)-5-methyl-6-[(2-oxoimidazolidin-1-yl)methyl]thieno[2,3-d]pyrimidine-2,4(1H,3H)-dione]	28 nM
CO[C@H]1C[C@H](n2c(=O)c3c(C)c(CN4CCNC(=O)C4=O)sc3n(CCC(F)(F)F)c2=O)C1 [Example 147, 6-[(2,3-Dioxopiperazin-1-yl)methyl]-3-(trans-3-methoxycyclobutyl)-5-methyl-1-(3,3,3-trifluoropropyl)thieno[2,3-d]pyrimidine-2,4(1H,3H)-dione]	48 nM
Cc1c(Cn2nc[nH]c2=O)sc2c1c(=O)n(C1CC1C)c(=O)n2CCOC(F)(F)F (single isomer, unassigned) [Example 277, 5-Methyl-3-(2-methylcyclopropyl)-6-[(5-oxo-4,5-dihydro-1H-1,2,4-triazol-1-yl)methyl]-1-[2-(trifluoromethoxy)ethyl]thieno[2,3-d]pyrimidine-2,4(1H,3H)-dione]	3.9 nM
Cc1c(CN2CCNC2=O)sc2c1c(=O)n(C1(C)CC1)c(=O)n2CCC(F)(F)F [Example 56, 5-Methyl-3-(1-methylcyclopropyl)-6-[(2-oxoimidazolidin-1-yl)methyl]-1-(3,3,3-trifluoropropyl)thieno[2,3-d]pyrimidine-2,4(1H,3H)-dione]	3.6 nM
Cc1c(Cn2nc[nH]c2=O)sc2c1c(=O)n(C1CC1)c(=O)n2CC1CCC(F)(F)C1 (single isomer, unassigned) [Example 211, 3-Cyclopropyl-1-[(3,3-difluorocyclopentyl)methyl]-5-methyl-6-[(5-oxo-4,5-dihydro-1H-1,2,4-triazol-1-yl)methyl]thieno[2,3-d]pyrimidine-2,4(1H,3H)-dione]	1300 nM
CCC1CC1n1c(=O)c2c(C)c(Cn3nc[nH]c3=O)sc2n(CCOC)c1=O (single isomer, unassigned) [Example 305, 3-(2-Ethylcyclopropyl)-1-(2-methoxyethyl)-5-methyl-6-[(5-oxo-4,5-dihydro-H-1,2,4-triazol-1-yl)methyl]thieno[2,3-d]pyrimidine-2,4(1H,3H)-dione]	120 nM
Cc1c(CN2CCNC2=NC#N)sc2c1c(=O)n(C1CC1C)c(=O)n2CCOC(F)(F)F (single isomer, unassigned) [Example 266, [1-({5-Methyl-3-(2-methylcyclopropyl)-2,4-dioxo-1-[2-(trifluoromethoxy)ethyl]-1,2,3,4-tetrahydrothieno[2,3-d]pyrimidin-6-yl}methyl)imidazolidin-2-ylidene]cyanamide]	0.96 nM
CCC1(n2c(=O)c3c(C)c(Cn4nc[nH]c4=O)sc3n(CCOC)c2=O)CC1 [Example 109, 3-(1-Ethylcyclopropyl)-1-(2-methoxyethyl)-5-methyl-6-[(5-oxo-4,5-dihydro-H-1,2,4-triazol-1-yl)methyl]thieno[2,3-d]pyrimidine-2,4(1H,3H)-dione]	640 nM
CCC1(n2c(=O)c3c(C)c(CN4CCNC4=O)sc3n(CCC(F)(F)F)c2=O)CC1 [Example 106, 3-(1-Ethylcyclopropyl)-5-methyl-6-[(2-oxoimidazolidin-1-yl)methyl]-1-(3,3,3-trifluoropropyl)thieno[2,3-d]pyrimidine-2,4(1H,3H)-dione]	41 nM
COCCn1c(=O)n(C2CC2C(F)(F)F)c(=O)c2c(C)c(Cn3nc[nH]c3=O)sc21 (single isomer, unassigned) [Example 298, 1-(2-Methoxyethyl)-5-methyl-6-[(5-oxo-4,5-dihydro-1H-1,2,4-triazol-1-yl)methyl]-3-[2-(trifluoromethyl)cyclopropyl]thieno[2,3-d]pyrimidine-2,4(1H,3H)-dione]	1800 nM
COCCn1c(=O)n(C2CC2)c(=O)c2c(C)c(Cn3cc[nH]c3=O)sc21 [Example 28, 3-Cyclopropyl-1-(2-methoxyethyl)-5-methyl-6-[(2-oxo-2,3-dihydro-1H-imidazol-1-yl)methyl]thieno[2,3-d]pyrimidine-2,4(1H,3H)-dione]	19 nM
CCn1c(=O)n(C2CC2C)c(=O)c2c(C)c(CN3CCNC3=O)sc21 (single isomer, unassigned) [Example 226, 1-Ethyl-5-methyl-3-(2-methylcyclopropyl)-6-[(2-oxoimidazolidin-1-yl)methyl]thieno[2,3-d]pyrimidine-2,4(1H,3H)-dione]	1.9 nM
Cc1c(Cn2nc[nH]c2=O)sc2c1c(=O)n(C1(C)CCC1)c(=O)n2CCC(F)(F)F [Example 138, 5-Methyl-3-(1-methylcyclobutyl)-6-[(5-oxo-4,5-dihydro-1H-1,2,4-triazol-1-yl)methyl]-1-(3,3,3-trifluoropropyl)thieno[2,3-d]pyrimidine-2,4(1H,3H)-dione]	260 nM
COCCn1c(=O)n(C2CC(C)(C)C2)c(=O)c2c(C)c(CN3CCNC3=NC(=O)OC)sc21 [Example 171, Methyl [1-{[3-(3,3-dimethylcyclobutyl)-1-(2-methoxyethyl)-5-methyl-2,4-dioxo-1,2,3,4-tetrahydrothieno[2,3-d]pyrimidin-6-yl]methyl}imidazolidin-2-ylidene]carbamate]	17 nM
COC(=O)N=C1NCCN1Cc1sc2c(c1C)c(=O)n(C1CC1C)c(=O)n2CCOC(F)(F)F (racemic) [Example 267, Methyl [1-({5-methyl-3-(2-methylcyclopropyl)-2,4-dioxo-1-[2-(trifluoromethoxy)ethyl]-1,2,3,4-tetrahydrothieno[2,3-d]pyrimidin-6-yl}methyl)imidazolidin-2-ylidene]carbamate]	2.4 nM
COC(=O)N=C1NCCN1Cc1sc2c(c1C)c(=O)n(C1CC1C)c(=O)n2CCOC(F)(F)F (single isomer, unassigned) [Example 269, Methyl [1-({5-methyl-3-(2-methylcyclopropyl)-2,4-dioxo-1-[2-(trifluoromethoxy)ethyl]-1,2,3,4-tetrahydrothieno[2,3-d]pyrimidin-6-yl}methyl)imidazolidin-2-ylidene]carbamate]	2 nM
CCCCn1c(=O)n(C2CC2)c(=O)c2c(C)c(Cn3nc[nH]c3=O)sc21 [Example 4, 1-Butyl-3-cyclopropyl-5-methyl-6-[(5-oxo-4,5-dihydro-H-1,2,4-triazol-1-yl)methyl]thieno[2,3-d]pyrimidine-2,4(1H,3H)-dione]	34 nM
Cc1c(CN2CCNC2=O)sc2c1c(=O)n(C1(C)CC1)c(=O)n2C[C@@H]1CCCO1 [Example 82, 5-Methyl-3-(1-methylcyclopropyl)-6-[(2-oxoimidazolidin-1-yl)methyl]-1-[(2S)-tetrahydrofuran-2-ylmethyl]thieno[2,3-d]pyrimidine-2,4(1H,3H)-dione]	77 nM
COCCn1c(=O)n(C2CC2C)c(=O)c2c(C)c(CN3CCNC3=O)sc21 (racemic) [Example 94, 1-(2-Methoxyethyl)-5-methyl-3-(2-methylcyclopropyl)-6-[(2-oxoimidazolidin-1-yl)methyl]thieno[2,3-d]pyrimidine-2,4(1H,3H)-dione]	7.2 nM
